In patent US10760110B2, “Antibiotic testing and screening system” (priority 2017, dated 2020):
≈ marks a conversion by molar mass, not a printed value. Like-named read-outs stand apart in the source and are kept apart here.

Legend:
Conditions in all cases: Klebsiella pneumoniae
[1] = test system: K. pneumoniae NVT1001 ΔramRΔompK35/36 mutant and its revertants; experiment: Etest MIC, ΔramRΔompK35/36 mutant and its revertants (Table 7); assay type: cell-based
[2] = test system: K. pneumoniae NVT1001 and its ΔompK35/36 and/or ΔramR mutants; experiment: Etest MIC, OmpK35/36 loss and AcrAB-TolC overexpression (ΔramR) strains (Table 6); assay type: cell-based, Klebsiella pneumoniae
Procedure, shortened: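 Etest MICs against K. pneumoniae NVT1001 and its ΔompK35/36 and/or ΔramR mutants, rounded up to the next two-fold value. For NVT1001 carrying pACYC177-blaOXA-48, ceftazidime and cefotaxime MICs by CLSI broth microdilution, interpreted with CLSI 2017 breakpoints.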

[3] = test system: K. pneumoniae NVT1001 strains with carbapenemase plasmids; experiment: Etest MIC of β-lactams, OmpK35/36 loss, ΔramR and/or carbapenemase (Table 9); assay type: cell-based, Klebsiella pneumoniae
Procedure: DNA fragments of the resistance genes along with their flanking regions were amplified from clinical plasmids via PCR with specific primer pairs. The resulting PCR fragments were digested and then cloned into the plasmid pACYC177 or pACYC184. The resulting plasmids were then transformed into K. pneumoniae strain NVT1001 via electroporation. The recombinant bacteria were plated onto LB agar plates containing kanamycin (50 mg/L) or chloramphenicol (50 mg/L), and the presence of the cloned gene was confirmed via PCR and DNA sequencing.
The MICs of antibiotics were determined using the Etest (Biodisk AB, Sweden) according to the manufacturer's instructions. The MICs from the Etest, which fall between standard two-fold dilutions, were rounded up to the next highest two-fold value. The MICs of ceftazidime and cefotaxime against K. pneumoniae NVT1001 harbouring the pACYC177 plasmid with blaOXA-48 were further determined using a broth microdilution test according to the recommendations of the CLSI,^25 and the results were interpreted according to the breakpoints established by the CLSI in 2017.^25 Meanwhile, due to the lack of CLSI breakpoints in 2016 and 2017, the results for cephalothin were interpreted according to the breakpoints established by the CLSI in 2015,^26 and the results for moxifloxacin were interpreted according to the breakpoints established by the EUCAST in 2017.^27

CCO/N=C(\C(=O)N[C@@H]1C(=O)N2C(C(=O)[O-])=C(Sc3nc(-c4cc[n+](C)cc4)cs3)CS[C@H]12)c1nsc(N)n1 [Ceftaroline]
MIC ([1]; ΔramRΔompK35/36::ompK35/36 revertant): 1 µg/mL | MIC ([1]; ΔramRΔompK35/36::ompK35 revertant): 4 µg/mL | MIC ([1]; ΔramRΔompK35/36::ompK36 revertant): 1 µg/mL | MIC ([1]; ΔramRΔompK35/36::ramR revertant): 1 µg/mL | MIC ([1]; ΔramRΔompK35/36::ramR::ompK35/36 revertant): 0.25 µg/mL | MIC ([1]; ΔramRΔompK35/36::ramR::ompK35 revertant): 0.5 µg/mL | MIC ([1]; ΔramRΔompK35/36::ramR::ompK36 revertant): 0.5 µg/mL | MIC ([1]; ΔramRΔompK35/36 mutant): 4 µg/mL | MIC ([2]; WT, NVT1001, read-out: MIC): 0.25 µg/mL (≈ 0.413 µM) | MIC ([2]; Δ35, ΔompK35 mutant): 0.25 µg/mL (≈ 0.413 µM) | MIC ([2]; Δ35/36, ΔompK35/36 mutant): 1 µg/mL (≈ 1.65 µM) | MIC ([2]; Δ36, ΔompK36 mutant): 0.5 µg/mL (≈ 0.827 µM) | MIC ([2]; ΔramR mutant): 1 µg/mL (≈ 1.65 µM) | MIC ([2]; ΔramRΔ35, ΔramRΔompK35 mutant): 1 µg/mL (≈ 1.65 µM) | MIC ([2]; ΔramRΔ35/36, ΔramRΔompK35/36 mutant): 4 µg/mL (≈ 6.61 µM) | MIC ([2]; ΔramRΔ36, ΔramRΔompK36 mutant): 4 µg/mL (≈ 6.61 µM) | MIC ([3]; IMP-8 on pACYC177, WT (NVT1001), read-out: MIC): 64 µg/mL | MIC ([3]; IMP-8 on pACYC177, Δ35 (ΔompK35 mutant)): 64 µg/mL | MIC ([3]; IMP-8 on pACYC177, Δ35/36 (ΔompK35/36 mutant)): > 256 µg/mL | MIC ([3]; IMP-8 on pACYC177, Δ36 (ΔompK36 mutant)): 64 µg/mL | MIC ([3]; IMP-8 on pACYC177, ΔramR mutant): 32 µg/mL | MIC ([3]; IMP-8 on pACYC177, ΔramRΔ35 (ΔramRΔompK35 mutant)): 64 µg/mL | MIC ([3]; IMP-8 on pACYC177, ΔramRΔ35/36 (ΔramRΔompK35/36 mutant)): 128 µg/mL | MIC ([3]; IMP-8 on pACYC177, ΔramRΔ36 (ΔramRΔompK36 mutant)): 64 µg/mL | MIC ([3]; KPC-2 on pACYC177, WT (NVT1001), read-out: MIC): 256 µg/mL | MIC ([3]; KPC-2 on pACYC177, Δ35 (ΔompK35 mutant)): > 256 µg/mL | MIC ([3]; KPC-2 on pACYC177, Δ35/36 (ΔompK35/36 mutant)): > 256 µg/mL | MIC ([3]; KPC-2 on pACYC177, Δ36 (ΔompK36 mutant)): > 256 µg/mL | MIC ([3]; KPC-2 on pACYC177, ΔramR mutant): > 256 µg/mL | MIC ([3]; KPC-2 on pACYC177, ΔramRΔ35 (ΔramRΔompK35 mutant)): > 256 µg/mL | MIC ([3]; KPC-2 on pACYC177, ΔramRΔ35/36 (ΔramRΔompK35/36 mutant)): > 256 µg/mL | MIC ([3]; KPC-2 on pACYC177, ΔramRΔ36 (ΔramRΔompK36 mutant)): > 256 µg/mL | MIC ([3]; KPC-3 on pACYC177, WT (NVT1001), read-out: MIC): 256 µg/mL | MIC ([3]; KPC-3 on pACYC177, Δ35 (ΔompK35 mutant)): 256 µg/mL | MIC ([3]; KPC-3 on pACYC177, Δ35/36 (ΔompK35/36 mutant)): > 256 µg/mL | MIC ([3]; KPC-3 on pACYC177, Δ36 (ΔompK36 mutant)): > 256 µg/mL | MIC ([3]; KPC-3 on pACYC177, ΔramR mutant): 256 µg/mL | MIC ([3]; KPC-3 on pACYC177, ΔramRΔ35 (ΔramRΔompK35 mutant)): 256 µg/mL | MIC ([3]; KPC-3 on pACYC177, ΔramRΔ35/36 (ΔramRΔompK35/36 mutant)): > 256 µg/mL | MIC ([3]; KPC-3 on pACYC177, ΔramRΔ36 (ΔramRΔompK36 mutant)): > 256 µg/mL | MIC ([3]; NDM-1 on pACYC177, WT (NVT1001), read-out: MIC): > 256 µg/mL | MIC ([3]; NDM-1 on pACYC177, Δ35 (ΔompK35 mutant)): > 256 µg/mL | MIC ([3]; NDM-1 on pACYC177, Δ35/36 (ΔompK35/36 mutant)): > 256 µg/mL | MIC ([3]; NDM-1 on pACYC177, Δ36 (ΔompK36 mutant)): > 256 µg/mL | MIC ([3]; NDM-1 on pACYC177, ΔramR mutant): > 256 µg/mL | MIC ([3]; NDM-1 on pACYC177, ΔramRΔ35 (ΔramRΔompK35 mutant)): > 256 µg/mL | MIC ([3]; NDM-1 on pACYC177, ΔramRΔ35/36 (ΔramRΔompK35/36 mutant)): > 256 µg/mL | MIC ([3]; NDM-1 on pACYC177, ΔramRΔ36 (ΔramRΔompK36 mutant)): > 256 µg/mL | MIC ([3]; OXA-48 on pACYC177, WT (NVT1001), read-out: MIC): 8 µg/mL | MIC ([3]; OXA-48 on pACYC177, Δ35 (ΔompK35 mutant)): 8 µg/mL | MIC ([3]; OXA-48 on pACYC177, Δ35/36 (ΔompK35/36 mutant)): 32 µg/mL | MIC ([3]; OXA-48 on pACYC177, Δ36 (ΔompK36 mutant)): 8 µg/mL | MIC ([3]; OXA-48 on pACYC177, ΔramR mutant): 8 µg/mL | MIC ([3]; OXA-48 on pACYC177, ΔramRΔ35 (ΔramRΔompK35 mutant)): 8 µg/mL | MIC ([3]; OXA-48 on pACYC177, ΔramRΔ35/36 (ΔramRΔompK35/36 mutant)): 16 µg/mL | MIC ([3]; OXA-48 on pACYC177, ΔramRΔ36 (ΔramRΔompK36 mutant)): 8 µg/mL | MIC ([3]; VIM-1 on pACYC177, WT (NVT1001), read-out: MIC): 256 µg/mL | MIC ([3]; VIM-1 on pACYC177, Δ35 (ΔompK35 mutant)): > 256 µg/mL | MIC ([3]; VIM-1 on pACYC177, Δ35/36 (ΔompK35/36 mutant)): > 256 µg/mL | MIC ([3]; VIM-1 on pACYC177, Δ36 (ΔompK36 mutant)): > 256 µg/mL | MIC ([3]; VIM-1 on pACYC177, ΔramR mutant): > 256 µg/mL | MIC ([3]; VIM-1 on pACYC177, ΔramRΔ35 (ΔramRΔompK35 mutant)): > 256 µg/mL | MIC ([3]; VIM-1 on pACYC177, ΔramRΔ35/36 (ΔramRΔompK35/36 mutant)): > 256 µg/mL | MIC ([3]; VIM-1 on pACYC177, ΔramRΔ36 (ΔramRΔompK36 mutant)): > 256 µg/mL | MIC ([3]; no supplemental plasmid, WT (NVT1001), read-out: MIC): 0.25 µg/mL | MIC ([3]; no supplemental plasmid, Δ35 (ΔompK35 mutant)): 0.25 µg/mL | MIC ([3]; no supplemental plasmid, Δ35/36 (ΔompK35/36 mutant)): 1 µg/mL | MIC ([3]; no supplemental plasmid, Δ36 (ΔompK36 mutant)): 0.5 µg/mL | MIC ([3]; no supplemental plasmid, ΔramR mutant): 1 µg/mL | MIC ([3]; no supplemental plasmid, ΔramRΔ35 (ΔramRΔompK35 mutant)): 1 µg/mL | MIC ([3]; no supplemental plasmid, ΔramRΔ35/36 (ΔramRΔompK35/36 mutant)): 4 µg/mL | MIC ([3]; no supplemental plasmid, ΔramRΔ36 (ΔramRΔompK36 mutant)): 4 µg/mL
